From patent publication US7893252B2, “Selectively depolymerized galactomannan polysaccharide” (priority 2003, dated 2011)

How the values were obtained:
rats [1] = assay: 28-day subchronic rat study (Example 7); format: in vivo; conditions: 48 mg/kg 5-FU, daily IV for four consecutive days
Description: In the 28-day subchronic rat study performed with research grade unfiltered galactomannan, single daily IV doses of 10 mL/kg saline, 48 mg/kg (288 mg/m2) 5-FU, 48 mg/kg (288 mg/m2) galactomannan or 24/13 mg/kg (144/78 mg/m2), 36/19 mg/kg (216/114 mg/m2) or 48/25 mg/kg (288/150 mg/m2) of the 5-FU/galactomannan combination were given at a rate of 1 mL/min for four consecutive days. The four doses of 5-FU produced mortality (7/8 with 48 mg/kg 5-FU; 1/8, 2/8 and 7/8 with 24/13, 36/19 and 48/25 mg/kg 5-FU/galactomannan, respectively).
Lesions in unscheduled-death animals were primarily due to the expected action of 5-FU on the hematopoietic and lymphoid systems, with secondary bacterial invasion and disseminated hemorrhage due to effects on coagulation. At the study day 5 necropsy, lesions included pronounced hypocellularity of the bone marrow, lymphoid atrophy of the thymus and atrophy of villi in the various segments of the small intestine (all considered due to the expected action of 5-FU). With the exception of the mild granulomatous foci in the lungs, treatment-related histopathological lesions were resolved in animals sacrificed at study day 29 (only one female survived in Group 2 and Group 6).

[2] = test system: human colon tumor COLO 205; assay: Efficacy study in COLO 205 human colon tumor xenografts, q4d×3 (Example 3); conditions: 5-FU 75 mg/kg/dose
Description: The both studies were conducted as follows.
5-FU alone was administered i.v. on the same q4d×3 treatment schedule at doses of 75 mg/kg/dose (225 mg/m2/dose). 5-FU was formulated in saline fresh on each day of treatment at a concentration of 3.75 mg/mL, at pH 9.2. […] Both individual compounds and their mixture were administered according to exact body weight with injection volume being 0.2 mL/10 g body weight.
There were a total of four groups of 10 animals each, s.c.-implanted with COLO 205 human colon tumor xenografts.

[3] = test system: advanced colorectal cancer; conditions: cited from earlier work
mice = assay: Acute toxicology, single IV dose in mice; format: in vivo; conditions: single IV dose 409 mg/kg (1227 mg/m2) 5-FU
Description: Acute toxicology studies of the galactomannan of the present invention were performed in mice, rats and dogs and subchronic toxicology studies were performed in rats and dogs. The following is a summary of the findings of these studies: […]

beagle dogs = assay: 28-day canine study (Example 9); format: in vivo; conditions: 6 mg/kg (120 mg/m2) 5-FU, daily IV for four consecutive days
Description: In a 28-day canine study, single daily IV doses of saline, 6 mg/kg (120 mg/m2) 5-FU and ([…] (240 mg/m2) galactomannan or 4/2 mg/kg (80/40 mg/m2), 6/3.2 mg/kg (120/64 mg/m2) or 6/6 mg/kg (120/120 mg/m2) 5-FU/galactomannan were injected for four consecutive days to six groups of beagle dogs Mortality occurred in 13 of 48 dogs (five moribund sacrifices and eight found dead) between Study Days 2 and 5 (4/4 males on 5-FU; 3/4 males in the 4/2 mg/kg 5-FU/galactomannan group; 2/4 males and 1/4 females in the 6/3.2 and 6/6 mg/kg 5-FU/galactomannan groups, respectively).
Adverse effects in 5-FU groups included ataxia, prostration, vocalization, convulsions, tremors, hypersensitivity to touch, aggressive behavior (resulting in only three doses being given to the 6/3.2 5-FU/galactomanna group), emesis, salivation, soft stools and decreased red cell parameters and platelet counts. […] At the day 5 necropsy, treatment-related histological changes were largely limited to the 5-FU females. At day 29 necropsy, there were no remarkable changes in the survivors.

rats [4] = assay: Acute toxicology, single IV dose in rats; format: in vivo; conditions: 5-FU 140 mg/kg, galactomannan 72 mg/kg, combination 140/72 mg/kg, n=5/sex/group
Description: (§1) Acute toxicology studies of the galactomannan of the present invention were performed in mice, rats and dogs and subchronic toxicology studies were performed in rats and dogs. The following is a summary of the findings of these studies:
In rats (n=5/sex/group), single IV doses of 140 mg/kg (840 mg/m2) 5-FU, 72 mg/kg (432 mg/m2) galactomannan or 140/72 mg/kg of the combination produced no deaths in any of the groups.
Toxic changes in body weight, feed consumption, and hematology were less severe in the rats injected with the combination, versus those injected with 5-FU alone.

dogs = assay: Acute toxicology, single IV injection in dogs; format: in vivo; conditions: 5-FU 28.5 mg/kg, galactomannan 15 mg/kg, combination 28.5/15 mg/kg
Description: as §1
The surviving dogs remained clinically normal and had no treatment-related changes in body weight, feed consumption, ECG tracings, clinical pathology or gross tissue changes during the 21-day study period.

[5] = test system: COLO 205 human colon tumor xenografts; assay: Efficacy and compatibility with leucovorin in COLO 205 human colon tumor xenografts, q4d×4 (Example 4); conditions: GM 120 mg/kg/dose
Description: The principal differences with the study described in Example 3 were that (a) the galactomannan was from another source, of a different size (molecular weight) and with a different Man/Gal ratio, (b) there were four consecutive injections, not three, (c) there were four doses of the galactomannan tested, not one, (d) 5-FU was administered (i.v.) in 48 mg/kg/dose, not 75 mg/kg/dose, as in the first study, and (e) galactomannan (i.v. injection) was compared with leucovorin (oral gavage, administered two hours after 5-FU) in terms of efficacy and toxicity. […] 5-FU alone was administered i.v. on the same q4d×4 treatment schedule at dosages of 48 mg/kg/dose. 5-FU was formulated in saline fresh on each day of treatment at a concentration of 4.8 mg/mL, at pH 9.2. […] Leucovorin powder (clinical formulation, Leucovorin calcium for injection) was reconstituted with water for injection to yield a concentration of 10 mg/mL. On each day of treatment the stock solution was diluted with water for injection to yield a concentration of 2.5 mg/mL.
Two more combination-treatment groups were also included in the study. One group of mice was treated with 5-FU (48 mg/kg/dose, i.v., q4d×4), followed by oral gavage (p.o.) with leucovorin, administered two hours after 5-FU at a dosage of 25 mg/kg/dose. Another two groups of mice were treated with 5-FU in a combination with the galactomannan (48 mg/kg/dose and 120 mg/kg/dose, respectively, i.v., q4d×4), followed by p.o. leucovorin treatment, administered at a dosage of 25 mg/kg/dose two hours after 5-FU plus the galactomannan.
There were a total of nine groups of 10 animals each, s.c.-implanted with COLO 205 human colon tumor xenografts.

[6] = q4d×4, 5-FU 48 mg/kg/dose i.v., leucovorin oral 25 mg/kg/dose

Compound	mortality (rats [1])	mean survival time ([2]; i.v. q4d×3, GM 120 mg/kg/dose) [days]	median to quadrupling of tumor volume ([2]; i.v. q4d×3, GM 120 mg/kg/dose) [days]	median tumor volume after 56 days of the study ([2]; i.v. q4d×3, GM 120 mg/kg/dose) [mm3]	tumor regression after 56 days of the study ([2]; i.v. q4d×3, GM 120 mg/kg/dose)	treatment-related deaths ([2]; i.v. q4d×3, GM 120 mg/kg/dose, 10 mice per group, within two weeks)	time required to quadruple tumor weight ([2]; intravenous, galactomannan 120 mg/kg/day (360 mg/m2)) [days]	patients with hand-foot syndrome ([3]; continuous infusion regimens)	death (mice)	time of death (mice) [days]	mortality between Study Days 2 and 5 (beagle dogs)	deaths (rats [4])	death (dogs)	median to quadrupling of tumor volume ([5]; i.v. q4d×4, 5-FU 48 mg/kg/dose) [days]	median tumor volume after 13 days ([5]; i.v. q4d×4, 5-FU 48 mg/kg/dose) [mm3]	median days to quadrupling of tumor weight [5, 6] [days]	tumor weight at Day 13 from treatment initiation, mean [5, 6] [mg]	tumor weight at Day 13 from treatment initiation, median [5, 6] [mg]	single agent response rate ([3]; previously treated colorectal cancer patients) [%]
O=c1[nH]cc(F)c(=O)[nH]1 [5-FU, 5-fluorouracil, reference compound]	7/8	23.7	23.7	2254	no tumor regression	three of ten	23.5	approximately 20%	3/5	13 to 16	4/4	no deaths	2/2	8.7	800	8.7	734	800	–
O=C1[O][Pt]2([NH][C@@H]3CCCC[C@H]3[NH]2)[O]C1=O [Oxaliplatin]	–	–	–	–	–	–	–	–	–	–	–	–	–	–	–	–	–	–	10
